# Patent US6949679B1, “Polyamine transport inhibitors” (Universite Laval, priority 1998, dated 2005)
# Where two headings read alike, the source gives them in different places.
# Columns and labels:
# ZR-75-1 cells [1] = assay: Intracellular accumulation of inhibitor and polyamine contents (HPLC) in ZR-75-1 cells; format: cell-based, human; details: ZR-75-1 cells, 6-hour incubation, HPLC of cell extracts
# polyamine transporter [2] = assay: Inhibition of [14C]spermine uptake in ZR-75-1 cells; format: cell-based, human; details: 3μM substrate (Example 11), read-out: Ki, [14C]spermine transport
# in vitro = details: human, ZR-75-1 cells
# Source text: FIG. 34 represents the relative cytotoxicity of sym-norspermidine (NSpd), BABAC and TADAX in ZR-75-1 human breast cancer cells. Data are the mean±SD of triplicate determinations from a representative experiment.
# polyamine transporter [3] = assay: Inhibition of [3H]putrescine uptake in ZR-75-1 cells; format: cell-based, human; details: for Ki: ZR-75-1 cells
# Method: (§1) The rate of putrescine and spermidine transport was determined in ZR-75-1 cells incubated in serum-free RPMI 1640 medium as described (Lessard, M., Zhao, C., Singh, S. M. and Poulin, R. 1995. J. Biol. Chem. 270: 1685-1694), using [^3H]putrescine (30 Ci/mol) and [^3H]spermidine (20 Ci/mol), respectively as substrates for a 20 minute-assay period. Spermine uptake was similarly determined, using 1 μM [^14C]spermine (32 Ci/mol) as substrate. Uptake activity was expressed per amount of DNA as fluorometrically determined using 3,4-diaminobenzoic acid (Simard, J., Dauvois, S., Haagensen, D. E., Lėvesque, C., Mėrand, Y. and Labrie, F. 1990. Endocrinology, 126: 3223-3231). For the determination of spermidine uptake activity in CHO-K1 cells, 80% confluent cell monolayers were rinsed twice with PBS and incubated for 20 minutes at 37° C. in 400 μl of buffer A (20 mM Tris-HCl, pH 7.4; 0.42 mM CaCl2; 0.41 mM MgSO4; 103 mM NaCl; 5.7 mM KCl; 1.1 mM D-glucose) containing 5 μM [^3H]spermidine (20 Ci/mol). Cell cultures were then washed twice with 1 ml PBS containing 5.7 mM sym-norspermidine. Cells were then lysed with 200-μl aliquot of 1 N NaOH and incubated for 30 minutes at 60° C. After neutralization with 200 μl of 1 N HCl, radioactivity was determined from a 250-μl of the cell lysate by scintillation counting. Uptake activity was expressed per amount of total cellular protein as determined by the method of Bradford (Bradford, M. M. 1976. Anal. Biochem. 72: 248-254). Non-specific binding of radioactive substrate was similarly determined in parallel for both cell lines after a 15 second-incubation with 400 μl of ice-cold uptake solution.
# (§2) Kinetic analysis of polyamine transport was performed by determining uptake activity in the presence of a 3 μM [^3H]putrescine or 1 μM [^3H]spermidine plus increasing concentrations of nonradioactive substrate. K[…] Ki and Vmax values were then estimated by Lineweaver-Burke analysis. For competitive inhibitors, Ki values were also estimated by measuring uptake activity in the presence of logarithmically increasing concentrations of antagonist, and using the Cheng-Prusoff equation (Cheng, Y.-C. and Prusoff, W. H. 1973. Biochem. Pharmacol. 22: 3099-3108) by iterative curve fitting for a sigmoidal curve. For mixed competitive/noncompetitive inhibition, two methods were used to calculate kinetic constants. First, the equation [drawing 2] where v, s, and i are the transport velocity, substrate concentration and inhibitor concentration respectively, was used to calculate the inhibition constants for inhibitor/carrier complex formation (Ki) and carrier/inhibitor/substrate complex formation (Ki′) (Dixon, M. and Webb, E. C. 1976. Enzymes, 3rd Ed., Academic Press, San Diego, Calif.). Alternatively, the value of Ki for a mixed competitor/non-competitor was estimated from the intersect of equations v^−1 vs i at two different substrate concentrations (Dixon, M. and Webb, E. C. 1976. Enzymes, 3rd Ed., Academic Press, San Diego, Calif.). Intracellular Accumulation
# (§3) In order to evaluate the effectiveness of dimeric triamines as polyamine transport inhibitors, we synthesized N,N′-bis(3-aminopropyl),N,N′-bis(4-aminobutyl)cystamine or BABAC (structure 1, FIG. 25; FIG. 31), and its thiol form N-(3-aminopropyl),N-(4-aminobutyl)cysteamine or AAC (FIG. 31) according to Scheme 4 described above (FIG. 30), using spermidine as a precursor polyamine. The ability of BABAC and AAC to inhibit the intracellular uptake of radio-labeled putrescine and spermidine in the ZR-75-1 human breast cancer cell line was then determined according to standard published procedures (Lessard, et al. and Poulin, et al.) Briefly, ZR-75-1 cells were grown for four days in twenty-four well plates in RPMI 1640 medium supplemented with 10% fetal bovine serum.
# polyamine transporter [4] = assay: Inhibition of [14C]spermine uptake in ZR-75-1 cells; format: cell-based, human; details: for Ki: this work, read-out: Km or Ki, spermine transport
# Method: as §1, with “Spermine uptake was similarly determined, using 1 μM [^14C]spermine (32 Ci/mol) as substrate.” left out
# as §2, §3
# ZR-75-1 cells [5] = assay: Effect on ZR-75-1 cell proliferation (11 days, DNA content); format: cell-based, human; details: 50 μM
# Method: (§4) For growth studies, ZR-75-1 cells were cultured in MEZR medium or in phenol red-free RPMI 1640 supplemented with 2 mM L-glutamine, 1 mM sodium pyruvate, 15 mM Hepes, antibiotics, 1 nM 17β-estradiol, 0.5 μg of bovine insulin per ml and 5% (v/v) charcoal-treated fetal bovine serum (SD medium), as indicated in the text. When polyamines or polyamine analogs were added to serum-containing media, 1 mM aminoguanidine was added to inhibit bovine serum amine oxidase (BSAO) activity (Morgan, D. M. L. 1989, in The Physiology of Polyamines (Bachrach, U., and Heimer, Y. M. eds) Vol. I, pp. 203-229, CRC Press, Boca Raton). The effect of the transport inhibitors on cell growth was measured by incubating ZR-75-1 cells for 11 days in medium supplemented with antagonist, polyamines and/or 1 mM DFMO as indicated, followed by colorimetric determination of DNA content with 3,4-diaminobenzoic acid (Simard, J., Dauvois, S., Haagensen, D. E., Lėvesque C., Mėrand, Y. and Labriė, F. 1990. Endocrinology 126: 3223-3231). Medium was changed every other day in these experiments because of the slow reaction of the compound with an unknown component present in the IMEM and RPMI 1640 medium formulation.
# The biocompatibility of DESC, MESC, and DEASC was thus evaluated during a long-term (11-day) incubation with ZR-75-1 cells grown in RPMI 1640 containing 10% (v/v) FBS in the absence and presence of 1 mM aminoguanidine. […] Weak growth inhibition caused by the mixed MESC-cysteamine disulfide, however, apparently involved degradation by a copper amine oxidase.
# [6] = Stability in buffered aqueous solution; format: physicochemical; details: buffered at pH=7.0
# polyamine transporter [7] = assay: Inhibition of [3H]spermidine uptake in ZR-75-1 cells; format: cell-based, human; details: FIG. 32, 20 μM and 3 μM substrate, respectively, read-out: Apparent Ki, spermidine uptake
# Method: as §1
# as §2, with “Alternatively, the value of Ki for a mixed competitor/non-competitor was estimated from the intersect of equations v^−1 vs i at two different substrate concentrations (Dixon, M. and Webb, E. C. 1976. Enzymes, 3rd Ed., Academic Press, San Diego, Calif.). Intracellular Accumulation” left out
# as §3
# polyamine transporter [8] = details: ZR-75-1 cells; data annotated a (Lessard et al. 1995); read-out: Km or Ki, putrescine transport; cited from earlier work
# [9] = MESC: amino group neighboring the amide linkage; cited from earlier work
# ZR-75-1 cells [10] = assay: Reversal of DFMO-induced growth inhibition by exogenous spermidine; format: cell-based, human; details: 1 mM DFMO
# Method: as §4, with “3223-3231).” for “3223-3231). Medium was changed every other day in these experiments because of the slow reaction of the compound with an unknown component present in the IMEM and RPMI 1640 medium formulation.”
# This possibility was assessed by comparing the ability of DESC to prevent the reversal of DFMO-induced growth inhibition by increasing concentrations of exogenous spermidine.
# polyamine transporter [11] = details: ZR-75-1 cells; data annotated a (Lessard et al. 1995); read-out: Km or Ki, spermidine transport; cited from earlier work
# polyamine transporter [12] = details: ZR-75-1 cells; data annotated a (Lessard et al. 1995); read-out: Km or Ki, spermine transport; cited from earlier work
compound,measurement,setting,value
"NCCCN(CCCN)Cc1ccc(CN(CCCN)CCCN)cc1 [TADAX, N,N,N′,N′-tetrakis(3-aminopropyl)-p-xylylenediamine]",Accumulation of the compound in cells,ZR-75-1 cells [1],no detectable accumulation
same,Ki,polyamine transporter [2],1500 nM
same,IC50,in vitro,> 500000 nM
"NCCCNCCCC(NCCCN)C(=O)NCCSSCCN (stereo not shown) [DEASC, N-[2,2′-dithio(ethyl,1-aminoethyl)]spermine-5-carboxamide]",Mode of inhibition of [3H]putrescine uptake,"polyamine transporter [3]; Lineweaver-Burke, DESC up to 100 μM, MESC up to 200 μM",mixed competitive/non-competitive type
same,Ki,"polyamine transporter [3]; mixed competitive/non-competitive model, read-out: Ki′ (carrier/inhibitor/putrescine complex formation)",4100 nM
same,Ki,"polyamine transporter [3]; this work, DEASC: Ki of mixed competitive/non-competitive model, read-out: Ki, putrescine transport",5300 ± 600 nM
same,"Ki for [14C]spermine transport, fold higher than that of DESC",polyamine transporter [4]; FIG. 2,about 5 fold
same,Ki,polyamine transporter [4],16000 ± 3000 nM
same,Inhibition of cell proliferation,ZR-75-1 cells [5]; completely prevented by aminoguanidine,20%
same,Stability in aqueous solutions,[6],stable for months
"NCCCNCCCCNCCCN [Spermine, N,N′-bis-[3-aminopropyl]-1,4-butanediamine, reference compound]",Ki,"polyamine transporter [3]; FIG. 32, 20 μM and 3 μM substrate, respectively, read-out: Apparent Ki, putrescine uptake",74.5 nM
same,Ki,polyamine transporter [7],400 nM
same,Km,"polyamine transporter [4]; 3μM substrate (Example 11), read-out: Apparent Km, spermine transport",0.6 µM
same,Ki,polyamine transporter [4],200 ± 60 nM
same,Effect on cell growth,ZR-75-1 cells [5]; with or without 1 mM aminoguanidine,acutely cytotoxic
same,Ki,polyamine transporter [8],330 ± 20 nM
same,pKa of secondary amino group of the spermine head,[9],8.9-9.8
"NCCCCNCCCN [Spermidine, N-3[aminopropyl]-1,4-diaminobutane]",Spermidine concentration completely reversing DFMO-induced growth inhibition,ZR-75-1 cells [10]; 11 days,0.3 µM
same,activity at 0.1 µM,"ZR-75-1 cells [10]; Homo sapiens, ZR-75-1, 0.1 μM spermidine, read-out: Growth of DFMO-treated cells restored, % of control value",78%
same,Ki,polyamine transporter [8],230 ± 50 nM
same,Ki,polyamine transporter [11],490 ± 150 nM
same,Ki,polyamine transporter [12],370 ± 90 nM
"NCCCCN [Putrescine, 1,4-butane-diamine]",Ki,polyamine transporter [4],230 ± 130 nM
same,Ki,polyamine transporter [8],3700 ± 400 nM
same,Ki,polyamine transporter [11],125000 ± 29000 nM
